From PMC10826043 (BMC Complementary Medicine and Therapies, 2024)
Read-outs that look alike come from different tables or passages of the source.

What was measured:
α-amylase [1] = details: validation set, cited from earlier work
[2] = target: T1, α-amylase from porcine pancreas (Sus scrofa, UniProt P00690); assay: In vitro pancreatic α-amylase inhibitory assay (starch/DNS, 540 nm); type: biochemical; details: 1% starch, pH 6.9, 25 °C, read-out: IC50 (α-amylase inhibition)
T1 construct: α-amylase from porcine pancreas (A3176); purchased Sigma-Aldrich (Germany) A3176; host or cells: porcine pancreas (tissue-derived)
T1 sequence (P00690 16-511): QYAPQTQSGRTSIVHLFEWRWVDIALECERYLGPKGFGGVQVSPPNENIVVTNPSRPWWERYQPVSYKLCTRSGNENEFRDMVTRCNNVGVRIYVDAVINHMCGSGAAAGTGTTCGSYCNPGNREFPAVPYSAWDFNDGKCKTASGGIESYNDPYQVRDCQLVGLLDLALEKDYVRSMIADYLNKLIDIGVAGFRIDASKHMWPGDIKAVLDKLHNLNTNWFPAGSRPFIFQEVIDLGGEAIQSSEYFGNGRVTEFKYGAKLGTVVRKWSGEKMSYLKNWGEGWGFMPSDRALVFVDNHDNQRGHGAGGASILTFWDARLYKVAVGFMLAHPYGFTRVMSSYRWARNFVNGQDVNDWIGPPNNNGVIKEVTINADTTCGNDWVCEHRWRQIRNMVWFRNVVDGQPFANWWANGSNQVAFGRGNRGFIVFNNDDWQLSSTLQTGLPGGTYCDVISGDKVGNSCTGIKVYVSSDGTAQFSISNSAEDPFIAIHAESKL
Protocol: Analytical purity grade solvents were used throughout the study.
With reference to the established technique, the assay was carried out quantitatively with minor adjustments. Initially, 500µL test solution was preincubated with 500µL α-amylase solution (0.55 unit/mL) at 25°C for 10 min. The α-amylase was prepared in a buffer solution (0.02M sodium phosphate pH 6.9 with 0.006M NaCl). Afterwards, 500µL of 1% w/v starch in buffer solution was mixed in and left to incubate for 10 min at 25°C. To bring the reaction to a halt, 1mL dinitrosalicylic acid (DNS) was introduced and the mixture was placed in a boiling water bath for 3.5 min. After cooling to room temperature, the mixture was then diluted using 10mL distilled water and absorbance was measured using a Laxco spectrophotometer (α1502, Laxco Inc., USA) at λ 540nm. Blanks used throughout the experiment were made by adding pure buffer instead of α-amylase solution. […] To calculate the pancreatic α-amylase inhibitory activity, the following equation was used: %Inhibtion=100×1-Abs540nmExtract-Abs540nmPositivecontrol/Abs540nmNegativecontrol-Abs540nmPositivecontrol

α-amylase [3] = target: T2, α-amylase (Sus scrofa, UniProt P00690); assay: Combination analysis of α-amylase inhibition (CompuSyn: median-effect, isobologram, CI, DRI); type: biochemical, porcine; details: for Dose (mM) Kaempferol: kaempferol alone
T2 construct: α-amylase from porcine pancreas (A3176); purchased Sigma-Aldrich (Germany) A3176; host or cells: porcine pancreas (tissue-derived)
T2 sequence (P00690 16-511): T1 sequence (P00690 16-511)
Excerpt: These include: median effect, isobolographic, combination index, and lastly, dose reduction index analyses.
Data input included each inhibitors’ independent activity and the summation of both inhibitors’ activity when used in conjunction of each other. […] 2.6.
This method of analysis relies on its namesake equation, the median-effect equation which stems from the general mass-action law principle. Each inhibitor’s sigmoidal dose–effect plot was individually generated in addition to their respective combination. Thereafter, the plot was transfigured linearly into median-effect plots. The median-effect equation is described as: fa/fu=D/Dm^m
D represents the dose of the inhibitor, Dm is the inhibitor’s dose causing a decrease of 50% in the enzyme’s activity, fa is the fraction affected by dose D , fu is the unaffected fraction ( fu = 1 – fa ), and m the curve’s sigmoidicity coefficient. Through logarithmic transformation, the equation becomes: Logfa/fu=mlogD-mlog(Dm)
This, in turn, results in the median-effect plot. A plot where y=log(fa/fu) against x=log(D) with m being the slope and log(Dm) , the x-intercept. Dm and m are obtained from the median-effect plot. To determine the data’s conformity to the general mass-action principle, the linear correlation coefficient (r) of the plot is assessed.
Using each inhibitor’s individual effect, this method of analysis is employed to assess the combined effect of two inhibitors. A graph, wherein the x- and y- axes represent the doses of inhibitors A and B, respectively, is plotted. The doses, a and b denote the dose of inhibitor A and B, respectively, resulting in the same efficacy when used individually. (e.g.: At x % inhibition, a = CA,x and b = CB,x ). To assess the combined effects of inhibitors A and B, an additive line must first be established. This is accomplished by connecting two points of the same efficacy (e.g.: connecting a with b). Based on the respective position of the combination data points relative to the additive line, the nature of the interaction can be determined; synergism, addition, or antagonism are indicated by data points lying below, on, or above the additive line, respectively.
The combination index (CI) quantitatively evaluates the type of interaction between two inhibitors at a series of inhibition levels. CI is calculated by means of the following equation [38]: CI=CA,x/ICx,A+CB,x/ICx,B Where ICx,A and ICx,B are the doses of inhibitors A and B, respectively, required to produce x % inhibition when each inhibitor is used individually. Whereas CA,x and CB,x are the doses of inhibitors A and B, respectively, required to produce x % inhibition when a binary mixture is used. Based on the resulting CI, the nature of the inhibitors’ interaction can be concluded. A CI lower than, equal to, or greater than 1 is indicative of synergism, addition, or antagonism, respectively. Alternatively, the interaction present between the two inhibitors can be deduced via the combination index ( fa -CI) plot.
The dose reduction index (DRI) was calculated for synergistic binary combinations to measure the fold decrease in the dose of each inhibitor at a given effect level, relative to the dose of each inhibitor when used solitarily resulting in the same effect. DRI can be calculated as follows: DRI=IC50[solitaryinhibitor]/IC50[inhibitorincombination]
DRI values > 1 are favored, reflecting a decrease in dose while maintaining or enhancing the inhibitor’s efficacy.

[4] = study encompassing 714 medicated patients; ref [10]; cited from earlier work

COc1ccc(-c2oc3cc(O)cc(O)c3c(=O)c2O)cc1 [Kaempferide]
IC50 (α-amylase [1]; supplement ref [3]): 0.0229 ± 0.00317 mM

O=c1cc(-c2ccc(O)c(O)c2)oc2cc(O)ccc12 [7, 3', 4'-trihydroxyflavone]
IC50 (α-amylase [1]; supplement ref [3]): 0.0163 ± 0.00052 mM

COc1c(-c2ccc(O)c(O)c2)oc2cc(O)cc(O)c2c1=O [Quercetin-3-methylether, quercetin-3-methyl ether]
IC50 [2]: 6.37 ± 0.11 mM
IC50 (α-amylase [1]; supplement ref [3]): 0.0136 ± 0.00204 mM

O=c1cc(-c2ccc(O)c(O)c2)oc2cc(O)cc(O)c12 [Luteolin]
IC50 [2]: 6.32 ± 0.03 mM
IC50 (α-amylase [1]; supplement ref [3]): 0.0146 ± 0.00074 mM

C[C@@H]1O[C@@H](OC[C@H]2O[C@@H](Oc3cc4c(O)cc(O)cc4[o+]c3-c3ccc(O)c(O)c3)[C@H](O)[C@@H](O)[C@@H]2O)[C@H](O)[C@H](O)[C@H]1O [Cyanidin-3-rutinoside]
IC50 (α-amylase [1]; supplement ref [6]): 0.0244 ± 0.0001 mM

COc1cc(O)c2c(=O)c(O)c(-c3ccc(O)c(O)c3)oc2c1 [Quercetin-7-methylether, quercetin-7-methyl ether]
IC50 [2]: 5.01 ± 0.07 mM

COc1cc(OC)c2c(c1C)O[C@H](c1ccc(O)cc1)CC2 [(2S)-4′-hydroxy-5,7-dimethoxy-8-methylflavan]
IC50 (α-amylase [1]; supplement ref [11]): 6.03 ± 0.27 mM

O=c1c(O)c(-c2ccc(O)cc2)oc2cc(O)ccc12 [3,7,4'-Trihydroxyflavone]
IC50 (α-amylase [1]; supplement ref [8]): 0.059 ± 0.004 mM

O=c1cc(-c2ccccc2)oc2cc(O)cc(O)c12 [Chrysin]
IC50 (α-amylase [1]; supplement ref [12]): 15.3 ± 0.374 mM

Oc1cc(O)c2c(c1)O[C@H](c1ccc(O)c(O)c1)[C@H](O)C2 [L-epicatechin]
IC50 (α-amylase [1]; supplement ref [3]): 0.0315 ± 0.00221 mM

O=c1cc(-c2ccc(O)c(O)c2)oc2cccc(O)c12 [5,3',4'-Trihydroxyflavone]
IC50 (α-amylase [1]; supplement ref [8]): 0.148 ± 0.005 mM

O=C(O)c1ccccc1O [Salicylic acid]
IC50 (α-amylase [1]; supplement ref [13]): 13 mM

OCC1=C[C@@H](O)[C@@H]2C=CO[C@@H](O[C@@H]3O[C@H](CO)[C@@H](O)[C@H](O)[C@H]3O)[C@H]12 [Aucubin]
IC50 [2]: 2.37 mM

OC[C@H]1O[C@@H](Oc2cc3c(O[C@@H]4O[C@H](CO)[C@@H](O)[C@H](O)[C@H]4O)cc(O)cc3[o+]c2-c2ccc(O)c(O)c2)[C@H](O)[C@@H](O)[C@@H]1O [Cyanidin-3,5-glucoside]
IC50 (α-amylase [1]; supplement ref [5]): 0.04 ± 0.007 mM

O=c1c(Cc2ccc(O)cc2)coc2cc(O)cc(O)c12 [5,7-dihydroxy-3-(4′-hydroxybenzyl) chromone]
IC50 (α-amylase [1]; supplement ref [11]): 2.59 ± 0.05 mM

OC[C@H]1O[C@@H](Oc2cc3c(O)cc(O)cc3[o+]c2-c2ccc(O)c(O)c2)[C@H](O)[C@@H](O)[C@@H]1O [Cyanidin-3-glucoside]
IC50 (α-amylase [1]; supplement ref [5]): 0.024 ± 0.003 mM

O=C(/C=C/c1ccc(O)c(O)c1)O[C@H](Cc1ccc(O)c(O)c1)C(=O)O [Rosmarinic Acid, rosmarinic acid]
IC50 [2]: 7 ± 0.09 mM

O=c1c(O)c(-c2ccc(O)c(O)c2)oc2cc(OC3OC(CO)C(O)C(O)C3O)c(O)c(O)c12 [Quercetagetin-7-O-β-D-glucopyranoside]
IC50 (α-amylase [1]; supplement ref [3]): 0.00804 ± 0.00069 mM

COc1cc(C(=O)O)cc(OC)c1O [Syringic acid]
IC50 (α-amylase [1]; supplement ref [10]): 1.98 ± 0.01 mM

COc1cc(/C=C/C(=O)O)cc(OC)c1O [Sinapic acid]
IC50 (α-amylase [1]; supplement ref [13]): 37 mM

O=c1c(O)c(-c2ccc(O)cc2)oc2cc(O)cc(O)c12 [Kaempferol]
IC50 [2]: 4.84 ± 0.14 mM
IC50 (α-amylase [1]; supplement ref [3]): 0.0165 ± 0.00184 mM
IC50 (α-amylase [3]): 4.84 mM
m (slope of median-effect plot) (α-amylase [3]): 1.18
r (correlation coefficient of median-effect plot) (α-amylase [3]): 1.00
DRI Kaempferol (α-amylase [3]; fold dose reduction in combination with acarbose at 26% inhibition): 2.66
DRI Kaempferol (α-amylase [3]; fold dose reduction in combination with acarbose at 86% inhibition): 2.27
DRI Kaempferol (α-amylase [3]; fold dose reduction in combination with acarbose at 91% inhibition): 1.11
Dose (mM) Kaempferol (α-amylase [3]; dose needed for 26% inhibition): 1.99 mM
Dose (mM) Kaempferol (α-amylase [3]; dose needed for 86% inhibition): 22.6 mM
Dose (mM) Kaempferol (α-amylase [3]; dose needed for 91% inhibition): 34.5 mM

COc1cc(-c2oc3cc(O)cc(O)c3c(=O)c2O)ccc1O [Isorhamnetin]
IC50 (α-amylase [1]; supplement ref [12]): 24.9 ± 0.427 mM

COc1cc(C(=O)O)ccc1O [Vanillic acid]
IC50 (α-amylase [1]; supplement ref [10]): 2.05 ± 0.01 mM

O=c1cc(-c2ccc(O)cc2)oc2cc(O)cc(O)c12 [Apigenin]
IC50 (α-amylase [1]; supplement ref [3]): 0.0121 ± 0.00214 mM

O=c1cc(-c2ccccc2)oc2cc(O)c(O)c(O)c12 [Baicalein]
IC50 (α-amylase [1]; supplement ref [12]): 11.2 ± 0.2 mM

O=C(O)C=Cc1ccc(O)cc1 [p-Coumaric acid]
IC50 (α-amylase [1]; supplement ref [13]): 34.1 mM

O=C1C[C@@H](c2ccc(O)cc2)Oc2cc(O)cc(O)c21 [Naringenin]
IC50 (α-amylase [1]; supplement ref [3]): 0.0218 ± 0.00321 mM

Cc1c(O)cc2c(c1O)C(=O)C(Cc1ccc(O)cc1)CO2 (stereo not shown) [5,7-dihydroxy-6-methyl-3-(4′-hydroxybenzyl) chroman-4-one]
IC50 (α-amylase [1]; supplement ref [11]): 5.99 ± 0.06 mM

O=c1c(O)c(-c2cc(O)c(O)c(O)c2)oc2cc(O)cc(O)c12 [Myricetin]
IC50 [2]: 4.91 ± 0.06 mM
IC50 (α-amylase [1]; supplement ref [8]): 0.107 ± 0.006 mM

O=C(O[C@@H]1Cc2c(O)cc(O)cc2O[C@@H]1c1cc(O)c(O)c(O)c1)c1cc(O)c(O)c(O)c1 [Epigallocatechin gallate]
IC50 (α-amylase [1]; supplement ref [4]): 0.0115 ± 2e-05 mM

O=c1cc(-c2ccc(O)c(O)c2)oc2cc(O)c(Cl)c(O)c12 [6-Chloro-3',4',5,7-tetrahydroxyflavone]
IC50 (α-amylase [1]; supplement ref [8]): 0.044 ± 0.003 mM

COc1cc(C=O)ccc1O [Vanillin]
IC50 (α-amylase [1]; supplement ref [13]): 71 mM

COc1cc(-c2[o+]c3cc(O)cc(O)c3cc2O[C@@H]2O[C@H](CO)[C@@H](O)[C@H](O)[C@H]2O)ccc1O [Peonidin-3-glucoside]
IC50 (α-amylase [1]; supplement ref [5]): 0.075 ± 0.007 mM

O=C(/C=C/c1ccc(O)c(O)c1)O[C@@H]1C[C@](O)(C(=O)O)C[C@@H](O)[C@H]1O [Chlorogenic Acid, chlorogenic acid]
IC50 [2]: 7.39 ± 0.22 mM
IC50 (α-amylase [1]; supplement ref [9]): 1.05 ± 0.018 mM

O=C(O)c1ccc(O)c(O)c1 [Protocatechuic acid]
IC50 (α-amylase [1]; supplement ref [10]): 2.65 ± 0.16 mM

Oc1cc(O)c2c(c1)OC(c1ccc(O)c(O)c1)C(O)C2 (stereo not shown) [Catechin]
IC50 [2]: 5.04 ± 0.04 mM
IC50 (α-amylase [1]; supplement ref [9]): 1.16 ± 0.024 mM

O=C(O)/C=C/c1ccc(O)c(O)c1 [Caffeic acid]
IC50 (α-amylase [1]; supplement ref [13]): 19.4 mM

O=C(O)c1cc(O)c(O)c(O)c1 [Gallic acid]
IC50 (α-amylase [1]; supplement ref [7]): 0.0278 ± 0.00206 mM

C[C@H]1O[C@H](O[C@H]2[C@H](O)[C@@H](O)[C@@H](O[C@H]3[C@H](O)[C@@H](O)C(O)O[C@@H]3CO)O[C@@H]2CO)[C@H](O)[C@@H](O)[C@@H]1N[C@H]1C=C(CO)[C@@H](O)[C@H](O)[C@H]1O (stereo partly shown) [Acarbose]
participants who discontinued acarbose due to gastrointestinal side effects [4]: 19%

O=C(O)C1OC(Oc2cc(O)c3c(=O)cc(-c4ccc(O)cc4)oc3c2)C(O)C(O)C1O [Apigenin-7-O-β-D-glucopyranuronide]
IC50 (α-amylase [1]; supplement ref [3]): 0.0104 ± 0.00251 mM
